In ChEMBL document CHEMBL5030568, “Design and Evaluation of Bispidine-Based SARS-CoV-2 Main Protease Inhibitors” (ACS Med Chem Lett, 2022) one finds IC50 data, which are given here for 26 compounds.

Test [1] concerns HEK-293T. The test can be described thus: Cytotoxicity against human HEK293T cells assessed as reduction in cell viability. Type of test: cell-based.
Test [2] in a line: Inhibition of SARS coronavirus 2 3 main viral protease 3-chymotrypsin-like activity expressed in Escherichia coli using Dabcyl-VNSTLQSGLRK(FAM)MA as substrate measured by fluorescence intensity assay. Further details: species or system Severe acute respiratory syndrome coronavirus 2.

By IC50 is commonly meant the concentration needed to halve the response being measured. Consider `CC12CN(CCN(CC(=O)O)CC(=O)O)CC(C)(CN(CCN(C(=O)O)C(=O)O)C1)C2=O`, for which the 50% inhibitory concentration (IC50) in test [1] was determined as 257 µM; in test [2], 33.7 µM. In the case of `CC12CN(C(=O)/C=C/c3ccccc3)CC(C)(CN(C(=O)/C=C/c3ccccc3)C1)C2`, the half-maximal inhibitory concentration (IC50) in test [1] came out at 253 µM; in test [2], 46.6 µM. Taken in the same sequence, the figures for `CC12CN(CC(=O)O)CC(C)(CN(CC(=O)O)C1)C2=O` were over 1000 µM and 7.1 µM. Taken in the same sequence, the figures for `CC(C)(C)OC(=O)N1CC2(C)CN(C(=O)OC(C)(C)C)CC(C)(C1)C2=O` were over 1000 µM and 5.9 µM.

With `CC(C)(C)OC(=O)Cn1cc(CN2CC3(C)CN(Cc4cn(CC(=O)OC(C)(C)C)nn4)CC(C)(C2)C3=O)nn1`, the IC50 in test [1] is 465 µM; in test [2], 2.02 µM. Turning to `CC(C)(C)OC(=O)NCCn1cc(CN2CC3(C)CN(Cc4cn(CCNC(=O)OC(C)(C)C)nn4)CC(C)(C2)C3=O)nn1`, the IC50 in test [1] turned out to be 410 µM; in test [2] it was 0.83 µM. Taken in the same sequence, the figures for `C=CC(=O)N1CC2(C)CN(C(=O)C=C)CC(C)(C1)C2` were over 1000 µM and 99.6 µM. With `Cn1nc(C(=O)N2CC3(C)CN(C(=O)c4cc(-c5ccccc5)n(C)n4)CC(C)(C2)C3=O)cc1-c1ccccc1`, the half-inhibitory concentration (IC50) in test [1] was over 900 µM; in test [2], 1.45 µM. Regarding `C#CC(=O)N1CC2(C)CN(C(=O)C#C)CC(C)(C1)C2=O`, the results for the half-maximal inhibitory concentration (IC50) in test [1] and in test [2] were 57.3 µM and 5.5 µM, respectively. Taken in the same sequence, the figures for `Cn1nc(C(=O)N2CC3(C)CN(C(=O)c4cc(-c5cccs5)n(C)n4)CC(C)(C2)C3=O)cc1-c1cccs1` were 456 µM and 4.99 µM.

`Cc1cc(CN2CC3(C)CN(Cc4cc(C)no4)CC(C)(C2)C3=O)on1`: the results for the IC50 in test [1] and in test [2] were over 700 µM and 5.2 µM, respectively. Taken in the same sequence, the figures for `Cn1nc(C(=O)N2CC3(C)CN(C(=O)c4nn(C)c5c4Cc4ccccc4-5)CC(C)(C2)C3=O)c2c1-c1ccccc1C2` were over 800 µM and 13 µM. In turn, `CCOC(=O)c1cc(-n2cc(CN3CC4(C)CN(Cc5cn(-c6cc(C(=O)OCC)n[nH]6)nn5)CC(C)(C3)C4=O)nn2)[nH]n1` registered a concentration for half-maximal inhibition (IC50) in test [2] of 13.6 µM. Turning to `CC12CN(C(=O)c3ccccc3)CC(C)(CN(C(=O)c3ccccc3)C1)C2=O`, the concentration for half-maximal inhibition (IC50) worked out at 692 µM in test [1] and 3.3 µM in test [2].

With `CC12CNCC(C)(CNC1)C2=O`, the results for the IC50 in test [1] and in test [2] were over 1000 µM and 2.6 µM, respectively. Taken in the same sequence, the figures for `CC12CN(C(=O)c3cc(-c4ccccc4)n(-c4ccccc4)n3)CC(C)(CN(C(=O)c3cc(-c4ccccc4)n(-c4ccccc4)n3)C1)C2=O` were over 700 µM and 1.4 µM. Take `CC(=O)N1CC2(C)CN(C(C)=O)CC(C)(C1)C2=O`: the IC50 was over 1000 µM in test [1] and 18.5 µM in test [2]. Taken in the same sequence, the figures for `CC12CN(Cc3ccccc3)CC(C)(CN(Cc3ccccc3)C1)C2=O` were 359 µM and 0.9 µM.

For `CC(C)Cc1ccc(C(C)C(=O)O)cc1` (stereo not given) [IBUPROFEN], in test [2], the IC50 was over 500 µM.

For the compound `CC12CN(C(=O)OC(C)(C)C)CC(C)(CN(C(=O)OC(C)(C)C)C1)C2`, the figures for the IC50 in test [1] and in test [2] were 302 µM and 17.9 µM, respectively. In the case of `CC12CN(CC#N)CC(C)(CN(CC#N)C1)C2=O`, the IC50 in test [1] was over 700 µM; in test [2], 5.5 µM.

For the compound `Cn1nc(C(=O)N2CC3(C)CN(C(=O)c4nn(C)c5c4CCc4ccccc4-5)CC(C)(C2)C3=O)c2c1-c1ccccc1CC2`, the IC50 was over 800 µM in test [1] and 0.75 µM in test [2]. Regarding `CCOC(=O)c1n[nH]cc1-n1cc(CN2CC3(C)CN(Cc4cn(-c5c[nH]nc5C(=O)OCC)nn4)CC(C)(C2)C3=O)nn1`, the figures for the IC50 in test [1] and in test [2] were over 700 µM and 16.3 µM, respectively. Taken in the same sequence, the figures for `CC12CN(C(=O)/C=C/c3ccccc3)CC(C)(CN(C(=O)/C=C/c3ccccc3)C1)C2=O` were over 1000 µM and 4.8 µM. Taken in the same sequence, the figures for `C#CCN1CC2(C)CN(CC#C)CC(C)(C1)C2=O` were over 1000 µM and 8.8 µM. Taken in the same sequence, the figures for `CC12CN(Cc3cn(Cc4ccccc4)nn3)CC(C)(CN(Cc3cn(Cc4ccccc4)nn3)C1)C2=O` were 560 µM and 2.2 µM.
